Experimental data: paper PMC7589326, “Synthesis and Pharmacological Evaluation of Fluorinated Quinoxaline‐Based κ‐Opioid Receptor (KOR) Agonists Designed for PET Studies” (Chemmedchem, 2020)
“Also recorded” adds a separate entry of the source.

Columns and labels:
[1] = In vitro biotransformation with mouse liver microsomes and NADPH (LC-MS/MS); details: mouse liver microsomes, NADPH, 90 min
[2] = Distribution coefficient logD7.4, shake flask method with radioligand; type: physicochemical; details: n-octanol / phosphate buffered saline pH 7.4
Experimental: The distribution coefficient at pH 7.4 (logD7.4) was determined by a shake flask method using the radioligand [^18F]‐2. After distribution of [^18F]‐2 between n‐octanol and phosphate buffered saline (pH 7.4) layers, the radioactivity in both layers was determined and set in ratio. According to this procedure, a logD7.4 value of 1.37±0.06 was determined indicating a moderate lipophilic compound, which should be able to penetrate into the central nervous system.
The lipophilicity of radioligands [^18F]‐2 and [^18F]‐14c was assessed by determination of the water n‐octan‐1‐ol distribution coefficient (logD) following a published procedure.57 In brief, approximately 3.2 MBq of radioligand [^18F]‐2 and approximately 0.3 MBq of radiotracer [^18F]‐14c, respectively, were mixed with equal amounts (0.6 mL) of phosphate buffered saline (PBS, pH 7.4) and n‐octan‐1‐ol. The resulting biphasic system was mixed vigorously for 3 min at room temperature and subsequently, the tubes were centrifuged (≥5 min). Then 400 μL of the n‐octan‐1‐ol layer was separated and 400 μL of PBS were added. The mixture was mixed vigorously for 10 min at room temperature followed by centrifugation of the tubes for≥5 min. Two samples of 100 μL of each layer were counted in a γ‐counter (2480 Automatic Gamma Counter Wizard^2, Perkin‐Elmer). The distribution coefficient was determined by calculating the ratio cpm(n‐octan‐1‐ol)/cpm(PBS) and expressed as logD 7.4 (log(cpmn‐octanol/cpmPBS)). Three independent experiments were performed in duplicate and data were provided as mean values ±standard deviation.

[3] = Biostability and biotransformation in mice in vivo (radio-HPLC of pooled blood); design: species or system mouse; details: pooled blood of three mice, 90 min after injection
Experimental: In order to investigate the in vivo biotransformation of [^18F]‐2, the blood of three mice 90 min after injection of [^18F]‐2 was pooled and analyzed.
Approximately 72 MBq of [^18F]‐2 (in a volume of 100 μL) were injected into the tail vein of each of three 11‐week‐old C57/BL6 mice. The animals were sacrificed 90 min after injection. Whole blood of the three mice was pooled (∼2 mL) and centrifuged (3 min) to isolate plasma. Plasma (∼0.7 mL) was separated and mixed with ice‐cold CH3CN (1.4 mL). After further centrifugation for 5 min, the supernatant was separated and evaporated to dryness in vacuo at moderate temperatures (≤60 °C). The residue was dissolved in water for injection (20 μL) and the solution was analyzed by analytical radio‐HPLC B, method B.

[4] = Stability in human serum (radio-HPLC); type: in vitro ADME; details: 90 min, 37 °C
Experimental: (§1) Enzymes present in blood serum could be able to transform the radioactive PET tracer [^18F]‐2. Therefore, the blood serum stability of [^18F]‐2 was investigated before testing the tracer in vivo. [^18F]‐2 was incubated with mouse and human serum for 90 min at 37 °C.
(§2) The serum stability of radioligands [^18F]‐2 and [^18F]‐14c was evaluated by incubation in mouse or human serum at 37 °C for up to 90 min. An aliquot of formulated [^18F]‐2 or [^18F]‐14c (20 μL, ca. 6.6 MBq and ca.10 MBq, respectively) was added to a sample of mouse serum (200 μL) or human serum (200 μL), and the mixtures were incubated at 37 °C. Samples of 20 μL each were taken after periods of 10, 30, 60 and 90 min and ice‐cold DNA‐grade CH3CN (100 μL) were added. After centrifugation for ≥5 min, the supernatant was analyzed by analytical radio‐HPLC B, method B.

[5] = Stability in mouse serum (radio-HPLC); type: in vitro ADME; details: 90 min, 37 °C
Experimental: as §1, §2

[6] = In vivo biodistribution, small animal PET in C57BL/6 mice; design: species or system mouse; details: C57BL/6 mice, intravenous injection
Experimental: Next, the distribution of the PET tracer [^18F]‐2 in mice was investigated. For this purpose, [^18F]‐2 was injected into 15‐week‐old C57BL/6 mice. […] Already after 2 min the radioactivity was almost completely found in liver, kidneys and bladder. In the liver, the radioactivity remained almost constant over the period of 90 min (Figure 6). Besides a transient local increase in radioactivity in the submandibular and harderian glands, no significant accumulation of [^18F]‐2 in non‐excreting organs such as heart, lung and muscles as indicator for unspecific binding could be detected.
Adult C57BL/6 mice (n=2 male, 15 weeks, 28 g for [^18F]‐2; n=2, male, 10 weeks, 25 g for [^18F]‐14c) were anesthetized by isoflurane/O2 and one lateral tail vein was cannulated BY using a 27 G needle connected to 15 cm polyethylene catheter tubing. Radiotracers (∼500 kBq/g bodyweight, 15 MBq) were injected as a bolus (50 μL compound flushed with 100 μL saline) via the tail vein and subsequent PET scanning was performed.
Small Animal PET Scanning. PET experiments were carried out using a submillimeter high resolution (0.7 mm full width at half‐maximum) small animal scanner (32 module quadHIDAC, Oxford Positron Systems Ltd., Oxford, UK) with uniform spatial resolution (<1 mm) over a large cylindrical field (165 mm diameter, 280 mm axial length). List‐mode data were acquired for 90 min and reconstructed into dynamic time frames using an iterative reconstruction algorithm. Subsequently, the scanning bed was transferred to the computed tomography (CT) scanner (Inveon, Siemens Medical Solutions, U.S.), and a CT acquisition with a spatial resolution of 80 μm was performed for each mouse. Reconstructed image data sets were coregistered based on extrinsic markers attached to the multimodal scanning bed and the in‐house developed image analysis software MEDgical. Three‐dimensional volumes of interest (VOIs) were defined over the respective organs in CT data sets, transferred to the coregistered PET data, and analyzed quantitatively. Regional uptake was calculated as percentage of injected dose by dividing counts per milliliter in the VOI by total counts in the mouse multiplied by 100 (%ID/mL).

MOG induced EAE = details: mouse, in vivo; cited from earlier work
KOR [7] = target: T1, KOR (Homo sapiens, UniProt P41145); design: expressed in transfected cells; host or cells: HTLA cells (stably expressing TEV-fused β-arrestin2); method as in PMID 30543421; details: human HTLA cells; refers to U-50,488 (100 %); cited from earlier work
Target sequence in this assay (P41145 whole entry, the tested form may be a part): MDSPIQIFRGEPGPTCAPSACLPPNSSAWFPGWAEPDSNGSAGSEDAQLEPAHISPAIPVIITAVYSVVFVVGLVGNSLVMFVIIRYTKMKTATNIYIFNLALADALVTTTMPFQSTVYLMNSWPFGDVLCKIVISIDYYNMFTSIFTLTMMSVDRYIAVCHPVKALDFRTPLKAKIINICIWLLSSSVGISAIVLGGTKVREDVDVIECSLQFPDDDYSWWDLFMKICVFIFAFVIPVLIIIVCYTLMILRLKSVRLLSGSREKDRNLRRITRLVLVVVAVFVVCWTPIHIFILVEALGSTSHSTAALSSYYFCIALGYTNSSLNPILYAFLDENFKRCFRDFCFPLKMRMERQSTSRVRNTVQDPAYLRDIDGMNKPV
Target sequence in this assay (P32121 whole entry partner, the tested form may be a part): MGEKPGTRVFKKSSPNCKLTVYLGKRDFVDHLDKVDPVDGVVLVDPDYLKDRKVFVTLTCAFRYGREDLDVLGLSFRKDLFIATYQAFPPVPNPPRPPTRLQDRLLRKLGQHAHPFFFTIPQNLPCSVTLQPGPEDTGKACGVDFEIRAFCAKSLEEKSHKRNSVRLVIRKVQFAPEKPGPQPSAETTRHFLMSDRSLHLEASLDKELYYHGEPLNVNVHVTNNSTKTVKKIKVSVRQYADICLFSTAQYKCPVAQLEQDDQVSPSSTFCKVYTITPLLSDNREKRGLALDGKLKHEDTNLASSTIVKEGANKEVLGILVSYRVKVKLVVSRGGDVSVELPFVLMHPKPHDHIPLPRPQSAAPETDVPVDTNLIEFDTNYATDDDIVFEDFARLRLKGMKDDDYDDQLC

KOR [8] = target: T1, KOR; design: expressed in transfected cells; host or cells: HEK 293T (ATCC CRL-11268); method as in PMID 30543421; details: human HEK 293T cells; refers to U-50,488 (100 %); cited from earlier work
Target sequence in this assay (P41145 whole entry, the tested form may be a part): as the sequence (P41145 whole entry, the tested form may be a part) above

SMILES: O=C(Cc1ccc(Cl)c(Cl)c1)N1CCNC2CCCC(N3CCC(F)C3)C21 (centres unmarked) [14c‐5]
- amount of metabolite formed from 14c [1]: minor amounts

SMILES: O=C(Cc1ccc(Cl)c(Cl)c1)N1CCN(Cc2cn(CC[18F])nn2)[C@H]2CCC[C@H](N3CCCC3)[C@H]21 [[^18F]‐2, 2‐(3,4‐Dichlorophenyl)‐1‐((4aR,8R,8aS)‐ and ((4aS,8S,8aR)‐ 4‐{[1‐(2‐[^18F]fluoroethyl)‐1H‐1,2,3‐triazol‐4‐yl]methyl}‐8‐ (pyrrolidin‐1‐yl)‐3,4,4 a,5,6,7,8,8 a‐octahydroquinoxalin‐ 1(2H)‐yl)ethan‐1‐one]
- logD [2]: 1.37 ± 0.06
- intact PET tracer in blood [3]: 90%
- stability in human serum [4]: high stability
- stability in mouse serum [5]: high stability
- radioactivity in the bones / defluorination [6]: increased radioactivity in the bones was not observed
- enrichment of radioactivity in brain or spinal cord (PET images) ([6]; 90 min observation): do not show any enrichment of radioactivity in the brain or spinal cord
- clearance from the body ([6]; hepatic and renal pathways): very fast and efficient clearance

SMILES: O=C(Cc1ccc(Cl)c(Cl)c1)N1CCN(Cc2cn(CCF)nn2)C2CCCC(N3CCCC3)C21 (centres unmarked) [compound 2]
- protection from MS-like symptoms / disease severity in EAE (MOG induced EAE): significantly decreased diseases severity and delayed disease onset; also recorded: almost complete protection
- β-Arrestin-2 E max (KOR [7]): 86%
- cAMP E max (KOR [8]): 103%
